Assay results taken from patent US8569336B2, “Compounds for the treatment of inflammatory disorders” (priority 2008, dated 2013).
Read-outs that look alike come from different tables or passages of the source.

Assays:
[1] = target: T1, purified catalytic domain of recombinant human TACE (rhTACEc) (Homo sapiens, UniProt P78536, N452Q/S266A); test: TACE kinetic assay: cleavage of internally quenched peptide substrate TNF-FRET 2 (Ki); type: biochemical; conditions: TNF-FRET 2 substrate
T1 construct: 6xHis (C); made in house; host or cells: baculovirus/Hi5 insect cells

[2] = test system: TNF-α production from human whole blood; test: Inhibition of TNF-α production from human whole blood (hWBA), LPS stimulated, ELISA; type: cell-based; conditions: Homo sapiens, TNF-α by ELISA, read-out: hWBA (IC50)
[3] = human whole blood diluted 1:1, LPS stimulated
[4] = LPS-stimulated human whole blood
[5] = 3.5 h, human whole blood diluted 1:1, LPS stimulated, 3.5 h

T1 sequence (P78536 215-477 S266A/N452Q): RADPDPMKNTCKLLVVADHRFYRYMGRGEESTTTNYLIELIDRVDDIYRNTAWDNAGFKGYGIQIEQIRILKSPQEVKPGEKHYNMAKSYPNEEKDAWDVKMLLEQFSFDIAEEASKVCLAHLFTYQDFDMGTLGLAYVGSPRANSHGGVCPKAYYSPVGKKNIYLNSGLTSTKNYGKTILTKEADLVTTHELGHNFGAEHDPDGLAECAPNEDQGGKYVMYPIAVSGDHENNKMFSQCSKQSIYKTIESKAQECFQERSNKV

Row | SMILES | Ki ([1]; read-out: Ki) [nM] | IC50 [2, 3] [nM] | IC50 [2, 4] [nM] | Ki ([1]; Ki) [nM] | IC50 [2, 5] [nM]
1 | COc1ccc2c(c1)C(=O)N(C[C@@]1(c3cc4ccc(C(=O)NCC5CCN(C)CC5)cc4o3)NC(=O)NC1=O)C2 [Compound 2411] | 1.14 | 348 | – | – | –
2 | CCN(CC)CCNC(=O)c1ccc2cc([C@]3(CN4Cc5ccc(OC)cc5C4=O)NC(=O)NC3=O)oc2c1 [Compound 2419] | 0.79 | 332 | – | – | –
3 | COc1ccc2c(c1F)C(=O)N(C[C@@]1(c3ccc(-c4cccnc4)o3)NC(=O)NC1=O)C2 [Compound 314] | 0.444 | – | 536 | – | –
4 | COc1ccc2c(c1)C(=O)N(C[C@@]1(c3cc4c(C)nc(N)nc4o3)NC(=O)NC1=O)C2 [Compound 2299] | – | 284 | – | 0.762 | –
5 | COc1ccc2c(c1)C(=O)N(C[C@@]1(c3cc4c(o3)CCN(C(=O)N(C)C)C4)NC(=O)NC1=O)C2 [Compound 319] | 1.83 | – | 501 | – | –
6 | COc1ccc2c(c1)C(=O)N(C[C@@]1(c3cc4cc5c(cc4o3)[C@@H](N)CC5)NC(=O)NC1=O)C2 [Compound 2508] | 0.52 | 1020 | – | – | –
7 | COc1ccc2c(c1)C(=O)N(C[C@@]1(c3cc4cnc(NC5CC5)nc4o3)NC(=O)NC1=O)C2 [Compound 2297] | 0.822 | ≥ 1000 | – | – | –
8 | COc1ccc2c(c1)C(=O)N(C[C@@]1(c3cc4cc(-c5cnn(C)c5)ncc4o3)NC(=O)NC1=O)C2 [Compound 306] | 0.661 | – | 658 | – | –
9 | COc1ccc2c(c1)C(=O)N(C[C@@]1(c3ccc(C(=O)NS(C)(=O)=O)cc3)NC(=O)NC1=O)C2 [Compound 2406] | 5.38 | 7110 | – | – | –
10 | COc1ccc2c(c1)C(=O)N(C[C@@]1(c3cc4c(-c5cccc(C#N)c5)nccc4o3)NC(=O)NC1=O)C2 [Compound 2430] | 0.72 | 10000 | – | – | –
11 | COc1ccc2c(c1)C(=O)N(C[C@@]1(c3cc4ncc(CO)cc4o3)NC(=O)NC1=O)C2 [Compound 1941] | 0.59 | – | 609 | – | –
12 | COc1ccc2c(c1F)C(=O)N(C[C@@]1(c3cc4ccc5c(c4o3)CNC5=O)NC(=O)NC1=O)C2 [Compound 2498] | 1.21 | 166 | – | – | –
13 | COCCNC(=O)c1ccc2cc([C@]3(CN4Cc5ccc(OC)cc5C4=O)NC(=O)NC3=O)oc2c1 [Compound 2413] | 0.6 | 300 | – | – | –
14 | COC(=O)[C@H](CCCCNC(=O)c1cc2cc([C@]3(CN4Cc5ccc(OC)cc5C4=O)NC(=O)NC3=O)oc2cc1F)NC(=O)CCCC[C@@H]1SCC2NC(=O)NC21 (some centres unmarked) [Compound 1282] | 0.48 | – | – | – | 407
15 | COc1ccc2c(c1)C(=O)N(C[C@@]1(c3cc4nc(-c5ccc6nccn6c5)ccc4o3)NC(=O)NC1=O)C2 [Compound 2150] | 0.806 | – | – | – | 828
16 | COc1ccc2c(c1)C(=O)N(C[C@@]1(c3cc4nc(N5C[C@@H](O)CC5=O)ccc4o3)NC(=O)NC1=O)C2 [Compound 1531] | 0.65 | – | 125 | – | –
17 | COc1ccc2c(c1)C(=O)N(C[C@@]1(c3cc4cc(-c5c(OC(C)C)noc5C)cnc4o3)NC(=O)NC1=O)C2 [Compound 501] | 0.844 | – | 1590 | – | –
18 | CCNc1nnc(-c2ccc3oc([C@]4(CN5Cc6ccc(OC)c(F)c6C5=O)NC(=O)NC4=O)cc3n2)o1 [Compound 1916] | 0.81 | – | 308 | – | –
19 | COc1ccc2c(c1)C(=O)N(C[C@@]1(c3cc4nc(-c5ccc(OC)nc5)ccc4o3)NC(=O)NC1=O)C2 [Compound 1518] | 0.9 | – | 1510 | – | –
20 | COc1ccc2c(c1)C(=O)N(C[C@@]1(c3cc4ccc(C(=O)N(C)C)cc4o3)NC(=O)NC1=O)C2 [Compound 2414] | 0.41 | 990 | – | – | –
21 | COc1ccc2c(c1)C(=O)N(C[C@@]1(c3cc4c(C(F)(F)F)nccc4o3)NC(=O)NC1=O)C2 [Compound 2270] | 0.441 | – | – | – | 1070
22 | COc1ccc2c(c1)C(=O)N(C[C@@]1(c3cc4cc(C=O)ccc4o3)NC(=O)NC1=O)C2 [Compound 2451] | 0.41 | 987 | – | – | –
23 | COc1ccc2c(c1)C(=O)N(CC1([C@H]3C[C@@H](c4ccccc4)C3)NC(=O)NC1=O)C2 (some centres unmarked) [Compound 1914] | 26.1 | – | 100000 | – | –
24 | COc1ccc2c(c1)C(=O)N(CC1([C@H]3C[C@H](c4ccccc4)C3)NC(=O)NC1=O)C2 (some centres unmarked) [Compound 1915] | 9.99 | – | 100000 | – | –
25 | COc1ccc2c(c1)C(=O)N(C[C@@]1(c3cc4cc(C)c(S(N)(=O)=O)cc4o3)NC(=O)NC1=O)C2 [Compound 2479] | 0.36 | 2080 | – | – | –
26 | CCNc1nnc(-c2ccc3cc([C@]4(CN5Cc6ccc(OC)cc6C5=O)NC(=O)NC4=O)oc3c2)o1 [Compound 2193] | 0.253 | – | – | – | 170
27 | COc1ccc2c(c1)C(=O)N(C[C@@]1(c3cc4cc(C(=O)NCCN(C)CCNS(C)(=O)=O)c(F)cc4o3)NC(=O)NC1=O)C2 [Compound 1281] | 0.83 | – | – | – | 1100
28 | COc1ccc2c(c1F)C(=O)N(C[C@@]1(c3cc4cc5c(c(F)c4o3)CNC5=O)NC(=O)NC1=O)C2 [Compound 2500] | 0.52 | 282 | – | – | –

Row | SMILES | Ki ([1]; read-out: Ki) [nM] | IC50 [2, 3] [nM] | IC50 [2, 4] [nM] | Ki ([1]; Ki) [nM] | IC50 [2, 5] [nM]
29 | COc1ccc2c(c1)C(=O)N(C[C@@]1(c3cc4c(C)nc(O)c(C(=O)O)c4o3)NC(=O)NC1=O)C2 [Compound 2436] | – | 2390 | – | 2.41 | –
30 | COc1ccc2c(c1)C(=O)N(C[C@@]1(c3cc4cc(C(N)=O)ccc4o3)NC(=O)NC1=O)C2 [Compound 2407] | – | 162 | – | 0.12 | –
31 | COc1ccc2c(c1)C(=O)N(C[C@@]1(c3cc4cc(-c5nnc[nH]5)ccc4o3)NC(=O)NC1=O)C2 [Compound 2184] | 0.355 | – | – | – | 347
32 | COc1ccc2c(c1)C(=O)N(C[C@@]1(c3cc4cc(C5CCNCC5)ncc4o3)NC(=O)NC1=O)C2 [Compound 301] | 1.04 | – | 162 | – | –
33 | CCOC(=O)c1c(O)nc(C)c2cc([C@]3(CN4Cc5ccc(OC)cc5C4=O)NC(=O)NC3=O)oc12 [Compound 2434] | 1.32 | 174 | – | – | –
34 | CCNC(=O)Nc1ccc2oc([C@]3(CN4Cc5ccc(OC)cc5C4=O)NC(=O)NC3=O)cc2n1 [Compound 1939] | 1.12 | – | 671 | – | –
35 | COc1ccc2c(c1)C(=O)N(C[C@@]1(c3cc4cc(C5(C)CNC(=O)N5)cc(C)c4o3)NC(=O)NC1=O)C2 (some centres unmarked) [Compound 2212] | 0.095 | – | – | – | 2860
36 | COC(=O)c1cc2cc([C@]3(CN4Cc5ccc(OC)cc5C4=O)NC(=O)NC3=O)oc2cc1F [Compound 1271] | 0.45 | – | – | – | 1050
37 | COc1ccc2c(c1F)C(=O)N(C[C@@]1(c3cc4nc(-c5cccnc5)c(F)cc4o3)NC(=O)NC1=O)C2 [Compound 1315] | 0.09 | – | 1120 | – | –
38 | COc1ccc2c(c1)C(=O)N(C[C@@]1(c3cc4nc(-c5cccc(O)c5)ccc4o3)NC(=O)NC1=O)C2 [Compound 1902] | 0.28 | – | 998 | – | –
39 | COc1ccc2c(c1F)C(=O)N(C[C@@]1(c3cc4nc(-c5ccc(N(C)C)nc5)ccc4o3)NC(=O)NC1=O)C2 [Compound 1726] | 1.49 | – | > 10000 | – | –
40 | COc1ccc2c(c1F)C(=O)N(C[C@@]1(c3cc4nc(N(CCN(C)C)c5cn[nH]c5)ccc4o3)NC(=O)NC1=O)C2 [Compound 1714] | 0.85 | – | 271 | – | –
41 | COc1ccc2c(c1F)C(=O)N(C[C@@]1(c3cc4nc(-c5ccnc(N6CCN(C(=O)C(F)(F)F)CC6)c5)ccc4o3)NC(=O)NC1=O)C2 [Compound 1718] | 0.48 | – | 299 | – | –
42 | C#Cc1c(O)ccc2c1C(=O)N(C[C@@]1(c3cc4ncccc4o3)NC(=O)NC1=O)C2 [Compound 1737] | 5.8 | – | > 10000 | – | –
43 | COc1ccc2c(c1F)C(=O)N(C[C@@]1(c3cc4nc(N5CC[C@@H](O)C5)ccc4o3)NC(=O)NC1=O)C2 [Compound 1521] | 0.3 | – | 169 | – | –
44 | COc1ccc2c(c1)C(=O)N(C[C@@]1(c3cc4nc(-c5cc(O)cc(-c6ccncc6)c5)ccc4o3)NC(=O)NC1=O)C2 [Compound 1308] | 1.39 | – | 2950 | – | –
45 | COc1ccc2c(c1)C(=O)N(C[C@@]1(c3cc4nc(C(=O)NCCN(C)C)ccc4o3)NC(=O)NC1=O)C2 [Compound 1927] | 0.87 | – | 567 | – | –
46 | COc1ccc2c(c1)C(=O)N(C[C@@]1(c3cc4cc(-c5ccncc5)ccc4o3)NC(=O)NC1=O)C2 [Compound 2194] | 0.741 | – | – | – | 1170
47 | COc1ccc2c(c1)C(=O)N(C[C@@]1(c3cc4c(N5CCNCC5)nccc4o3)NC(=O)NC1=O)C2 [Compound 2279] | – | – | – | 2.55 | 234
48 | COc1ccc2c(c1)C(=O)N(C[C@@]1(c3cc4nc(N5CCCC5)ccc4o3)NC(=O)NC1=O)C2 [Compound 2106] | 0.422 | – | – | – | 669
49 | O=C1NC(=O)[C@](CN2Cc3ccc(O)cc3C2=O)(c2cc3ncccc3o2)N1 [Compound 1735] | – | – | 3830 | 1.52 | –
50 | COc1ccc2c(c1)C(=O)N(C[C@@]1(c3cc4cc(C(=O)O)c(F)cc4o3)NC(=O)NC1=O)C2 [Compound 1272] | 0.51 | – | – | – | 667
51 | CN(C)C1CCN(c2ccc3oc(C4(CN5CCc6ccsc6C5=O)NC(=O)NC4=O)cc3n2)CC1 (centres unmarked) [Compound 2495] | 0.71 | 650 | – | – | –
52 | COc1ccc2c(c1)C(=O)N(C[C@@]1(c3cc4nc(N5CCNC(=O)C5)ccc4o3)NC(=O)NC1=O)C2 [Compound 2114] | 0.306 | – | – | – | 193
53 | COc1ccc2c(c1)C(=O)N(C[C@@]1(c3cc4nc(N(CCO)CCN(C)C)ccc4o3)NC(=O)NC1=O)C2 [Compound 1702] | 3.96 | – | 1770 | – | –
54 | COc1ccc2c(c1)C(=O)N(C[C@@]1(c3cc4c(C(F)(F)F)nc(N)nc4o3)NC(=O)NC1=O)C2 [Compound 2305] | 0.568 | 1420 | – | – | –
55 | COc1ccc2c(c1)C(=O)N(C[C@@]1(c3cc4nc(C(=O)NC5CCN(C)CC5)ccc4o3)NC(=O)NC1=O)C2 [Compound 1911] | 1.32 | – | 317 | – | –
